Source: patent US20250049036A1 (priority 2021, published 2025)

Tests used:
Botrytis cinerea [1] = assay: Botrytis cinerea (gray mold) mycelial radial growth on potato dextrose agar; type: cell-based; settings: 168 h, 22° C., seven days, read-out: control compared to the untreated check
Outline: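 Compounds in 0.3% DMSO were mixed into potato dextrose agar, and plates were seeded with 5 mm mycelial discs from actively growing virulent culture. After seven days at 22 °C and 90% relative humidity, radial growth was measured relative to untreated control.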

Pyricularia oryzae = assay: microbe, parasite or virus in culture; type: cell-based; settings: 168 h, read-out: control compared to the untreated check
Venturia Inequalis = assay: Venturia inequalis (VENTIN) spore growth inhibition in liquid medium, 96-well microtiter plate, OD 600; type: cell-based; settings: spore suspension in PDB liquid medium, 18° C., 15-18 days, OD at 600, read-out: control compared to the untreated check
Outline: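 Venturia inequalis spores (10^5 spores/ml suspension) were grown in potato dextrose broth with test compounds dissolved in DMSO, mixing equal volumes of compound solution and spore suspension. Plates were incubated at 18 °C for 15–18 days. Growth was read as OD600 and converted to percent inhibition.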

Parastagonospora nodorum = Parastagonospora nodorum (PARANO) spore growth inhibition in liquid medium, 96-well microtiter plate, OD 600; type: cell-based; settings: spore suspension in PDB liquid medium, 18° C., 5-6 days, OD at 600, read-out: control compared to the untreated check
Outline: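 Read-out is percent growth inhibition from OD at 600 after 5-6 days at 18° C. Compounds, dissolved in DMSO, were diluted in potato dextrose broth and combined in equal volume with a 10^5 spores/ml suspension of PARANO.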

Phakopsora pachyrhizi = Phakopsora pachyrhizi test on soybean, preventive, greenhouse; type: in vivo; settings: preventive spray on soybean, inoculated one day after treatment, read-out: control (efficacy, disease severity) compared to the untreated check
Outline: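 Greenhouse-grown young soybean plants were sprayed with compound (2% DMSO/acetone, emulsifier in water) at the stated rate. One day later they were inoculated with 2×10^5 P. pachyrhizi inoculum and held at 22-24 °C, 80-90% relative humidity for disease development.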

Botrytis cinerea [2] = assay: Botrytis cinerea test on tomato, preventive, greenhouse; type: in vivo; settings: preventive spray on bean/chili plants (heading: tomato), inoculated one day after treatment, read-out: control (efficacy, disease severity) compared to the untreated check
Phytophthora infestans = assay: whole plant or invertebrate; type: in vivo, Phytophthora infestans on tomato; settings: in Solanum lycopersicum, read-out: control (efficacy, disease severity) compared to the untreated check
Botrytis cinerea [3] = assay: Botrytis cinerea liq. (BOTRCI) spore growth inhibition in liquid medium, 96-well microtiter plate, OD 405 nm; type: cell-based; settings: spore suspension in YBA liquid medium, 22° C., 5-6 days, OD at 405 nm, read-out: control compared to the untreated check
Outline: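 Spore suspension of B. cinerea (10^4 spores/ml) in YBA liquid medium mixed 1:1 with compound diluted from DMSO. Incubated at 22° C. for 5-6 days. Growth read as OD 405 nm; percent inhibition derived from treatment, untreated-control and blank readings.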

Fusarium culmorum = Fusarium culmorum test on wheat, preventive, greenhouse; type: in vivo; settings: preventive spray on wheat, inoculated one day after treatment, read-out: control (efficacy, disease severity) compared to the untreated check
Protocol: The respective compound was dissolved in 2% dimethyl sulfoxide/acetone and then mixed with water containing an emulsifier to a calibrated spray volume of 30 mL. Each spray solution was poured into a spray bottle for further application.
To test the preventive activity of a compound, healthy young wheat plants, raised in the greenhouse, were sprayed with the active compound preparation at the stated application rate inside the spray cabinets using hollow cone nozzles. One day after the treatment, the plants were inoculated with a spore suspension containing 2×10^6 Fusarium culmorum inoculum. The inoculated plants were then kept in a greenhouse chamber at 24° C. temperature and 80-90% relative humidity for disease expression.
A visual assessment of the compound's performance was carried out by rating the disease severity (0 100% scale) on treated plants 3, 7, 10 and 15 days after application. Efficacy (% control) of the compound was calculated by comparing the disease rating in the treatment with the one of the untreated control. The treated plants were also assessed for plant damage by recording symptoms like necrosis, chlorosis and stunting.

Alternaria solani = Alternaria solani (early blight of tomato/potato) mycelial radial growth on potato dextrose agar; type: cell-based; settings: 168 h, 25° C., seven days, read-out: control compared to the untreated check
Protocol: The compounds were dissolved in 0.3% dimethyl sulfoxide and then added to potato dextrose agar medium just prior to dispensing it into petri dishes. 5 mL medium, with the compound in the desired concentration, was dispensed into 60 mm sterile petri-plates. After solidification, each plate was seeded with a 5 mm size mycelial disc taken from the periphery of an actively growing virulent culture plate. The plates were incubated in growth chambers at 25° C. temperature and 60% relative humidity for seven days and the radial growth was measured and compared to the one of the untreated control.

Colletotrichum capsici = Colletotrichum capsici (anthracnose) mycelial radial growth on potato dextrose agar; type: cell-based; settings: Colletotrichum truncatum, 168 h, 25° C., seven days, read-out: control compared to the untreated check
Outline: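 Compounds in 0.3% DMSO were mixed into potato dextrose agar, and each plate was seeded with a 5 mm mycelial disc from an actively growing culture. Plates were incubated at 25° C and 60% relative humidity for seven days. Radial growth was compared with untreated control.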

Corynespora cassiicola = Corynespora cassiicola (leaf spot of tomato) mycelial radial growth on potato dextrose agar; type: cell-based; settings: 168 h, 25° C., seven days, read-out: control compared to the untreated check
Protocol: The compounds were dissolved in 0.3% dimethyl sulfoxide and then added to potato dextrose agar medium just prior to dispensing it into petri dishes. 5 mL medium, with the compound in the desired concentration, was dispensed into 60 mm sterile petri-plates. After solidification, each plate was seeded with a 5 mm size mycelial disc taken from the periphery of an actively growing virulent culture plate. The plates were incubated in growth chambers at 25° C. temperature and 70% relative humidity for seven days and the radial growth was measured and compared to the one of the untreated control.

CC(c1ccccc1F)C(C)(C)NC(=O)c1cnc2c(c1)c(Br)cn2C (stereo not shown) [Compound 63, 3-bromo-N-(3-(2-fluorophenyl)-2-methylbutan-2-yl)-1-methyl-1H-pyrrolo[2,3-b]pyridine-5-carboxamide]
≥ 70%: inhibition of growth at 300 ppm (Botrytis cinerea [1]) | inhibition of growth at 300 ppm (Pyricularia oryzae) | inhibition of growth at 300 ppm (Venturia Inequalis) | inhibition of growth at 300 ppm (Parastagonospora nodorum) | pest or weed control at 500 ppm (Phakopsora pachyrhizi) | pest or weed control at 500 ppm (Botrytis cinerea [2]) | pest or weed control at 500 ppm (Phytophthora infestans) | inhibition of growth at 300 ppm (Botrytis cinerea [3]) | pest or weed control at 500 ppm (Fusarium culmorum)

Cc1cc2cc(C(=O)NC(C)(C)Cc3ccccc3)cnc2n1C [Compound 99, 1,2-dimethyl-N-(2-methyl-1-phenylpropan-2-yl)-1H-pyrrolo[2,3-b] pyridine-5-carboxamide]
≥ 70%: inhibition of growth at 300 ppm (Pyricularia oryzae) | inhibition of growth at 300 ppm (Parastagonospora nodorum) | pest or weed control at 500 ppm (Phakopsora pachyrhizi) | inhibition of growth at 300 ppm (Alternaria solani) | pest or weed control at 500 ppm (Fusarium culmorum) | inhibition of growth at 300 ppm (Colletotrichum capsici)

CC(C)(Cc1ccccc1)NC(=O)c1cnc2c(c1)CCC2 [Compound 67, N-(2-methyl-1-phenylpropan-2-yl)-6,7-dihydro-5H-cyclopenta[b]pyridine-3-carboxamide]
≥ 70%: inhibition of growth at 300 ppm (Botrytis cinerea [1]) | inhibition of growth at 300 ppm (Venturia Inequalis) | inhibition of growth at 300 ppm (Parastagonospora nodorum) | pest or weed control at 500 ppm (Phakopsora pachyrhizi) | pest or weed control at 500 ppm (Botrytis cinerea [2]) | pest or weed control at 500 ppm (Phytophthora infestans) | inhibition of growth at 300 ppm (Botrytis cinerea [3]) | pest or weed control at 500 ppm (Fusarium culmorum)

Cc1ccc(CC(C)(C)NC(=O)c2cnc3c(ccn3C)c2)cc1 [Compound 50, 1-methyl-N-(2-methyl-1-(p-tolyl)propan-2-yl)-1H-pyrrolo[2,3-b] pyridine-5-carboxamide]
≥ 70%: inhibition of growth at 300 ppm (Botrytis cinerea [1]) | inhibition of growth at 300 ppm (Pyricularia oryzae) | inhibition of growth at 300 ppm (Parastagonospora nodorum) | pest or weed control at 500 ppm (Phakopsora pachyrhizi) | inhibition of growth at 300 ppm (Botrytis cinerea [3]) | inhibition of growth at 300 ppm (Alternaria solani) | pest or weed control at 500 ppm (Fusarium culmorum) | inhibition of growth at 300 ppm (Colletotrichum capsici)

CC(C)CC(C)(Cc1ccccc1)NC(=O)c1cnc2c(c1)OCCN2C (stereo not shown) [Compound 81, N-(2,4-dimethyl-1-phenylpentan-2-yl)-4-methyl-3,4-dihydro-2H-pyrido[3,2-b] [1,4]oxazine-7-carboxamide]
≥ 70%: inhibition of growth at 300 ppm (Pyricularia oryzae) | inhibition of growth at 300 ppm (Venturia Inequalis) | inhibition of growth at 300 ppm (Parastagonospora nodorum) | pest or weed control at 500 ppm (Botrytis cinerea [2]) | pest or weed control at 500 ppm (Phytophthora infestans) | pest or weed control at 500 ppm (Fusarium culmorum) | inhibition of growth at 300 ppm (Colletotrichum capsici)

Cc1ccc(CC(C)(C)NC(=O)c2cnc3c(c2)cc(C)n3C)cc1 [Compound 102, 1,2-dimethyl-N-(2-methyl-1-(p-tolyl)propan-2-yl)-1H-pyrrolo[2,3-b]pyridine-5-carboxamide]
≥ 70%: inhibition of growth at 300 ppm (Venturia Inequalis) | inhibition of growth at 300 ppm (Parastagonospora nodorum) | pest or weed control at 500 ppm (Phakopsora pachyrhizi) | pest or weed control at 500 ppm (Botrytis cinerea [2]) | pest or weed control at 500 ppm (Fusarium culmorum) | inhibition of growth at 300 ppm (Colletotrichum capsici)

Cc1cc(F)ccc1C(=O)OCC(C)(C)NC(=O)c1cnc2c(ccn2C)c1 [Compound 125, 2-methyl-2-(1-methyl-1H-pyrrolo[2,3-b]pyridine-5-carboxamido)propyl 4-fluoro-2-methylbenzoate]
≥ 70%: inhibition of growth at 300 ppm (Corynespora cassiicola) | pest or weed control at 500 ppm (Phakopsora pachyrhizi) | pest or weed control at 500 ppm (Botrytis cinerea [2])

C=C(C)CC(C)(Cc1ccccc1F)NC(=O)c1cnc2ccsc2c1 (stereo not shown) [Compound 129, N-(1-(2-fluorophenyl)-2,4-dimethylpent-4-en-2-yl)thieno[3,2-b] pyridine-6-carboxamide]
≥ 70%: inhibition of growth at 300 ppm (Corynespora cassiicola) | pest or weed control at 500 ppm (Phakopsora pachyrhizi) | inhibition of growth at 300 ppm (Alternaria solani) | inhibition of growth at 300 ppm (Colletotrichum capsici)

CCC(C)(Cc1ccccc1)NC(=O)c1cnc2c(ccn2C)c1 (stereo not shown) [Compound 6, 1-methyl-N-(2-methyl-1-phenylbutan-2-yl)-1H-pyrrolo[2,3-b] pyridine-5-carboxamide]
≥ 70%: inhibition of growth at 300 ppm (Corynespora cassiicola) | inhibition of growth at 300 ppm (Parastagonospora nodorum) | inhibition of growth at 300 ppm (Botrytis cinerea [3]) | inhibition of growth at 300 ppm (Alternaria solani) | inhibition of growth at 300 ppm (Colletotrichum capsici)

CC(C)CC(C)(Cc1ccccc1)NC(=O)c1cnc2c(c1)CCC2 (stereo not shown) [Compound 62, N-(2,4-dimethyl-1-phenylpentan-2-yl)-6,7-dihydro-5H-cyclopenta[b]pyridine-3-carboxamide]
≥ 70%: inhibition of growth at 300 ppm (Venturia Inequalis) | pest or weed control at 500 ppm (Phakopsora pachyrhizi) | pest or weed control at 500 ppm (Botrytis cinerea [2]) | pest or weed control at 500 ppm (Phytophthora infestans) | pest or weed control at 500 ppm (Fusarium culmorum) | inhibition of growth at 300 ppm (Colletotrichum capsici)

Cn1ccc2cc(C(=O)NC(C)(C)Cc3ccc(Cl)cc3)cnc21 [Compound 43, N-(1-(4-chlorophenyl)-2-methylpropan-2-yl)-1-methyl-1H-pyrrolo[2,3-b]pyridine-5-carboxamide]
≥ 70%: inhibition of growth at 300 ppm (Pyricularia oryzae) | inhibition of growth at 300 ppm (Corynespora cassiicola) | inhibition of growth at 300 ppm (Parastagonospora nodorum) | pest or weed control at 500 ppm (Phakopsora pachyrhizi)

CC(C)(C)NC(=O)c1cnc2ccsc2c1 [Compound 107, N-(tert-butyl)thieno[3,2-b] pyridine-6-carboxamide]
≥ 70%: inhibition of growth at 300 ppm (Corynespora cassiicola) | inhibition of growth at 300 ppm (Venturia Inequalis) | pest or weed control at 500 ppm (Phakopsora pachyrhizi)

CC(C)CC(C)(Cc1ccccc1)NC(=O)c1cnc2c(c1)CCCC2 (stereo not shown) [Compound 44, N-(2,4-dimethyl-1-phenylpentan-2-yl)-5,6,7,8-tetrahydroquinoline-3-carboxamide]
≥ 70%: inhibition of growth at 300 ppm (Pyricularia oryzae) | inhibition of growth at 300 ppm (Venturia Inequalis) | inhibition of growth at 300 ppm (Parastagonospora nodorum) | pest or weed control at 500 ppm (Phakopsora pachyrhizi) | pest or weed control at 500 ppm (Botrytis cinerea [2]) | pest or weed control at 500 ppm (Fusarium culmorum) | inhibition of growth at 300 ppm (Colletotrichum capsici)
